Experimental data from ChEMBL document CHEMBL1201862, “PubChem BioAssay data set” (2004).
Active and inactive are the calls of the source.

Experiments:
[1] = C. albicans growth with fluconazole, confirmation, fluorescence, retest (AID 2467); type: functional, cell-based
[2] = biological target: T1, Serine/threonine-protein phosphatase (Candida dubliniensis (strain CD36 / CBS 7987 / NCPF 3949 / NRRLY-17841) (Yeast), UniProt B9W6M3); experiment: calcineurin pathway inhibitors in yeast reporter, dose response, S. cerevisiae, CDRE-lacZ, luminescence, secondary (AID 2388); type: functional, cell-based;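 also: yeast reporter cells carrying a calcineurin-responsive lacZ construct stimulated with calcium chloride; luminescent beta-galactosidase reporter signal in whole cells rather than isolated phosphatase activity; potency for inhibition where a drop in reporter signal means calcineurin blockade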
T1 sequence (B9W6M3 whole entry): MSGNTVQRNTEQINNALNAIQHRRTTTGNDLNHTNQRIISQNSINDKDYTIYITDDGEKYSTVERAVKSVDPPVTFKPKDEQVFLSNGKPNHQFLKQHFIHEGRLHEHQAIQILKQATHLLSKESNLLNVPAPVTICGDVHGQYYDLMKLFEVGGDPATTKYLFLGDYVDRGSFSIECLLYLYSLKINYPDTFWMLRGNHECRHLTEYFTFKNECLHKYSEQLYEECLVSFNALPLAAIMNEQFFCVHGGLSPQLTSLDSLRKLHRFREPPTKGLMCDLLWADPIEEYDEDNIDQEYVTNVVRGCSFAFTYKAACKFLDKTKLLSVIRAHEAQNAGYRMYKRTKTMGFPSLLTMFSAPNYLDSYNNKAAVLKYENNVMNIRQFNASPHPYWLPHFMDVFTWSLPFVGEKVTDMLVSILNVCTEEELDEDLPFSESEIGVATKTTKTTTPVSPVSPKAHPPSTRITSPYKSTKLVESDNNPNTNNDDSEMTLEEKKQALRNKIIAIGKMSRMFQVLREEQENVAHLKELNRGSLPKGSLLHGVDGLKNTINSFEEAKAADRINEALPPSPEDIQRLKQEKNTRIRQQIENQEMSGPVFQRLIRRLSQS

[3] = NIH-3T3 fibroblast cytotoxicity, dose response, cytotoxicity control, cell-based, fluorescence, Alamar Blue, secondary assay (AID 2327); type: functional;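 also: NIH-3T3 mouse fibroblasts cultured with fluconazole at 8 µg/mL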
Candida albicans = experiment: growth inhibition of resistant C. albicans, dose response, CaCi-8, fluconazole, Alamar Blue, dry powder (AID 488807); type: functional, organism-based
[4] = biological target: ATP-dependent molecular chaperone HSP82 (Candida albicans (strain WO-1) (Yeast), UniProt C4YTQ8); experiment: loss of DOC-induced GRE-beta-galactosidase reporter signal, dose response, Hsp90 inhibitor project, S. cerevisiae, luminescence (AID 2400); type: functional, cell-based;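 also: beta-galactosidase luminescence from glucocorticoid response element reporter as proxy for Hsp90 function; inhibitor potency where signal loss means Hsp90 inhibition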
Phospholipase A2 = Phospholipase A2 (Homo sapiens, UniProt P04054); experiment: PLA2 enzyme inhibitors, dose response, counter-screen for ATG4B inhibitor project, biochemical, set 2 (AID 588586); type: functional
Beta-galactosidase = Beta-galactosidase (Escherichia coli, UniProt Q8VNN2); experiment: Dose response counterscreen for EBI2 assay utilizing the enzyme, b-galactosidase.; type: functional
Cysteine protease ATG4B = biological target: T2, Cysteine protease ATG4B (Homo sapiens, UniProt Q9Y4P1); experiment: ATG4B protease inhibitors, dose response, biochemical, fluorescence, set 2 (AID 588584); type: functional
T2 sequence (Q9Y4P1 whole entry): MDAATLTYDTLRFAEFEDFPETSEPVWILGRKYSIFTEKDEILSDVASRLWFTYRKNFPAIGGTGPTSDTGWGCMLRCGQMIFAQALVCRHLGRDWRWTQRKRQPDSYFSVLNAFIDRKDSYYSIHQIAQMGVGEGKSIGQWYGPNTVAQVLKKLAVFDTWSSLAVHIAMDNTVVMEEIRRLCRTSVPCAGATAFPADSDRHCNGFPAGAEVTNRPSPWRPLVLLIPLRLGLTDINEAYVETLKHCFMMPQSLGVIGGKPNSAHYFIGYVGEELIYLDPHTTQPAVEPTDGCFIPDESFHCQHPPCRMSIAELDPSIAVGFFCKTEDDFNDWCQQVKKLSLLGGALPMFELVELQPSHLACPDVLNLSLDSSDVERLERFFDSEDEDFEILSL

[5] = biological target: T3, Intestinal-type alkaline phosphatase (Homo sapiens, UniProt P09923); experiment: human IAP activators, dose response, biochemical, luminescent, uHTS hits, set 2 (AID 488817); type: functional;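 also: potency of activators that raise enzyme activity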
[6] = biological target: Intestinal-type alkaline phosphatase (Mus musculus, UniProt P24822); experiment: PubChem AID 488874; type: functional
[7] = biological target: T3, Intestinal-type alkaline phosphatase; experiment: human intestinal alkaline phosphatase activators, dose response, biochemical, luminescence, uHTS hits (AID 463120); type: functional
[8] = biological target: T4, Alkaline phosphatase, tissue-nonspecific isozyme (Homo sapiens, UniProt P05186); experiment: TNAP enzyme activators, dose response, selectivity assay for human IAP activator project, biochemical, TNAP isozyme, human IAP uHTS hits (AID 488886); type: functional;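 also: potency of compounds raising TNAP activity as a selectivity check on IAP activators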
T4 sequence (P05186 whole entry): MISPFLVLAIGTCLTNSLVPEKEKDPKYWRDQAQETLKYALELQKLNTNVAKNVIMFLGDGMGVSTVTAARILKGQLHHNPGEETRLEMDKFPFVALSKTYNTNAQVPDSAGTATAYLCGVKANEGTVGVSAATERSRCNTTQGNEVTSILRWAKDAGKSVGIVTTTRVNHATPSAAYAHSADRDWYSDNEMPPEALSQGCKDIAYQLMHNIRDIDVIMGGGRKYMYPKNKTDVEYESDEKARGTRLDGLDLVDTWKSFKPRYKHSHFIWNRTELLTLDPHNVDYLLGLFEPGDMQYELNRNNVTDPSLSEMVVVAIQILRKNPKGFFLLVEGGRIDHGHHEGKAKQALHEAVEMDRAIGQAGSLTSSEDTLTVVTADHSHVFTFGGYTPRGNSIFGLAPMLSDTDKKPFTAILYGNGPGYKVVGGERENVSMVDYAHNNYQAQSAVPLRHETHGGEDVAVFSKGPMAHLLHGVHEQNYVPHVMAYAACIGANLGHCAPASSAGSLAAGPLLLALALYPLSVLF

[9] = biological target: T3, Intestinal-type alkaline phosphatase; experiment: human IAP inhibitors, dose response, biochemical, luminescent, uHTS hits, set 2 (AID 488793); type: functional
[10] = biological target: T4, Alkaline phosphatase, tissue-nonspecific isozyme; experiment: inhibition of tissue-nonspecific alkaline phosphatase – biochemical, dose response (AID 488882); type: functional
[11] = biological target: T3, Intestinal-type alkaline phosphatase; experiment: Dose Response confirmation of uHTS hits from a small molecule inhibitors of human intestinal alkaline phosphatase via a luminescent assay. [Related pubchem assays (depositor defined):AID2544, AID2574]; type: functional
[12] = Luminescence Cell-Based Dose Response HTS to Identify Inhibitors of 5'UTR Stem-Loop Driven Prion Protein mRNA Translation in H4 Neuroglioblastoma Cells. [Related pubchem assays: 1827 (Project Summary), 1813 (Primary HTS)]; type: functional
[13] = biological target: T5, RNA-binding protein pos-1 (Caenorhabditis elegans, UniProt G5EF15); experiment: inhibitors of POS-1/mex-3 RNA binding, dose response, biochemical, fluorescence polarization (AID 1964);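 also: purified POS-1 fused to maltose binding protein made in E. coli; potency of compounds blocking POS-1 binding to fluorescent RNA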
T5 sequence (G5EF15 whole entry): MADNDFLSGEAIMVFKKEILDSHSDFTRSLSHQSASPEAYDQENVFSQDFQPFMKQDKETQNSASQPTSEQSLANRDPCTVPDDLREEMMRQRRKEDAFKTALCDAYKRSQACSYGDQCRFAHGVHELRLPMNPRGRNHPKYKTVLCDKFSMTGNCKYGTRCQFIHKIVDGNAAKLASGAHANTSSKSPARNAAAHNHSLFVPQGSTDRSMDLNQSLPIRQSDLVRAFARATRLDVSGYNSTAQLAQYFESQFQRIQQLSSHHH

[14] = biological target: T6, Zinc finger protein mex-5 (Caenorhabditis elegans, UniProt Q9XUB2); experiment: MEX-5/TCR-2 RNA interaction inhibitors, dose response, biochemical, C. elegans, fluorescence polarization (AID 1960)
T6 sequence (Q9XUB2 whole entry): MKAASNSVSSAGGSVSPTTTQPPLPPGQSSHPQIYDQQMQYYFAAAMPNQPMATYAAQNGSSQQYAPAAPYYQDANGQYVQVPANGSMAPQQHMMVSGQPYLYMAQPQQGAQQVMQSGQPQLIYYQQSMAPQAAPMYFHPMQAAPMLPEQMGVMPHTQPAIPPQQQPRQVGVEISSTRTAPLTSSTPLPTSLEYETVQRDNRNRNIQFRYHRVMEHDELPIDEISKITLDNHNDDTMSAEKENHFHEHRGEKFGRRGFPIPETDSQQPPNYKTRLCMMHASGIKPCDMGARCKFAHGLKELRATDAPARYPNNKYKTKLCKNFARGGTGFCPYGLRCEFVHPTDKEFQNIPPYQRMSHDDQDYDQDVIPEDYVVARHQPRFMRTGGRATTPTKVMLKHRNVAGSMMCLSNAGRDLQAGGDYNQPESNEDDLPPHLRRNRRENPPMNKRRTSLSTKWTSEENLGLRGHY

[15] = inhibitors of SNCA 5'UTR-driven reporter translation, confirmation, H4 neuroglioma cells, luminescence (AID 1988); type: functional, cell-based
[16] = inhibitors of firefly luciferase expression or activity, dose response, H4 neuroglioma cells, luminescence (AID 1990); type: functional, cell-based
Exodeoxyribonuclease V = Exodeoxyribonuclease V (Escherichia coli (strain K12), UniProt P04993+P07648+P08394); experiment: E. coli RecBCD inhibitors, dose response, counter-screen for AddAB inhibitor project, absorbance, V66 E. coli, mutant T4 phage (AID 492957); type: functional, cell-based, Escherichia coli str. K-12 substr. MG1655
[17] = Counterscreen for AddAB inhibitors: absorbance-based bacterial cell-based high throughput dose response assay for inhibitors of bacterial viability. [Related pubchem assays (depositor defined):AID435030, AID449728, AID449731, AID488942, AID488955, AID488956]; type: functional
[18] = biological target: T7, Heat shock factor protein 1 (Mus musculus, UniProt P38532); experiment: inhibition of MG132-induced HSE-luciferase signal, confirmation, cell-based, NIH3T3, luminescence, dose retest (AID 2382); type: functional;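 also: NIH3T3 fibroblasts with HSF1-driven luciferase reporter stressed by proteasome inhibitor MG132; luminescence from HSF1-driven luciferase expression after 8 hours of MG132 stress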
T7 sequence (P38532 whole entry): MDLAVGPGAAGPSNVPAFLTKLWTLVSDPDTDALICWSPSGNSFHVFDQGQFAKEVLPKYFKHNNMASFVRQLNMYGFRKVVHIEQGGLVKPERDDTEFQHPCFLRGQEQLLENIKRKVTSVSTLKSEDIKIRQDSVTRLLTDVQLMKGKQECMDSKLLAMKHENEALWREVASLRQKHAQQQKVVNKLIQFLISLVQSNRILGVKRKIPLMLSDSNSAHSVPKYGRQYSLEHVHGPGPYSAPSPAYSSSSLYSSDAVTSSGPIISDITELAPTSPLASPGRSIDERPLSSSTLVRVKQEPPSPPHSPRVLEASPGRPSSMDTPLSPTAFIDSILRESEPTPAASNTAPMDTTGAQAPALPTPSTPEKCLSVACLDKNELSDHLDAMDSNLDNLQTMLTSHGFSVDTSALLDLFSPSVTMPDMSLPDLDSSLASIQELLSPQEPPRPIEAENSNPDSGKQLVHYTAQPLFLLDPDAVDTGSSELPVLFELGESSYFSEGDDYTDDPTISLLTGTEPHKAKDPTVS

INS1 = experiment: beta cell apoptosis inhibitors, cytokine rescue, dose response, luminescence, retest (AID 449756); type: functional, cell-based; conditions: Rattus norvegicus;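 also: cell death triggered by IL-1 beta plus TNF-alpha plus IFN-gamma mixture; protective hits raise ATP signal compared with cytokine alone wells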

T3 sequence (P09923 whole entry): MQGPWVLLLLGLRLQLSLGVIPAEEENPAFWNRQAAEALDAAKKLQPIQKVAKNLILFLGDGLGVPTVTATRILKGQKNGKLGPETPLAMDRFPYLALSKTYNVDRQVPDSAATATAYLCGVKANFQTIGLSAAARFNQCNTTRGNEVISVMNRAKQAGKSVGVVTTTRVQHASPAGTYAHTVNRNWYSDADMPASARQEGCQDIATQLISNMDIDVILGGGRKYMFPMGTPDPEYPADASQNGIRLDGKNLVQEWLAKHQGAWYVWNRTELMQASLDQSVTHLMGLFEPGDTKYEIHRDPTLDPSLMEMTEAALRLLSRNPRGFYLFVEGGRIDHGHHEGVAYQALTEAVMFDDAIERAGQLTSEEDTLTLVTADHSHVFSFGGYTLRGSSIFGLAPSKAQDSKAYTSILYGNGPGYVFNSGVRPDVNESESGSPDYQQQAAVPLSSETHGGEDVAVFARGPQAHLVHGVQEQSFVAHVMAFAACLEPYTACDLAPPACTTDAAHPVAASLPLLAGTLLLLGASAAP
Chain of Intestinal-type alkaline phosphatase (Mus musculus, UniProt P24822) (P24822 whole entry): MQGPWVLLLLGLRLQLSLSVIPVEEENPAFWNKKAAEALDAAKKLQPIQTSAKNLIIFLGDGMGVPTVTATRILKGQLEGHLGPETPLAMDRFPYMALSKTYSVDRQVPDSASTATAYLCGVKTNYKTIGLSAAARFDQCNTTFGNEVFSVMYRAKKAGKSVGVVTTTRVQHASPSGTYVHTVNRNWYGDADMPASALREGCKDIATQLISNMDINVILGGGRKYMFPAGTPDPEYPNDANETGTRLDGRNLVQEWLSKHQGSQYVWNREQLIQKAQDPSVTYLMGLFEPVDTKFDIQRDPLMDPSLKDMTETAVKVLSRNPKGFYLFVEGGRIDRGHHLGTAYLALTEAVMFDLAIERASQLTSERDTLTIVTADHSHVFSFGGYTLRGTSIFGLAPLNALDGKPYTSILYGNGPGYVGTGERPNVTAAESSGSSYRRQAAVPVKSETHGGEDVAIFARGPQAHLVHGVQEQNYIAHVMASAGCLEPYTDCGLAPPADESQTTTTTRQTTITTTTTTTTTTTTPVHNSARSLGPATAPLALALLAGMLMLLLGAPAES
Chain of Exodeoxyribonuclease V (P04993 whole entry): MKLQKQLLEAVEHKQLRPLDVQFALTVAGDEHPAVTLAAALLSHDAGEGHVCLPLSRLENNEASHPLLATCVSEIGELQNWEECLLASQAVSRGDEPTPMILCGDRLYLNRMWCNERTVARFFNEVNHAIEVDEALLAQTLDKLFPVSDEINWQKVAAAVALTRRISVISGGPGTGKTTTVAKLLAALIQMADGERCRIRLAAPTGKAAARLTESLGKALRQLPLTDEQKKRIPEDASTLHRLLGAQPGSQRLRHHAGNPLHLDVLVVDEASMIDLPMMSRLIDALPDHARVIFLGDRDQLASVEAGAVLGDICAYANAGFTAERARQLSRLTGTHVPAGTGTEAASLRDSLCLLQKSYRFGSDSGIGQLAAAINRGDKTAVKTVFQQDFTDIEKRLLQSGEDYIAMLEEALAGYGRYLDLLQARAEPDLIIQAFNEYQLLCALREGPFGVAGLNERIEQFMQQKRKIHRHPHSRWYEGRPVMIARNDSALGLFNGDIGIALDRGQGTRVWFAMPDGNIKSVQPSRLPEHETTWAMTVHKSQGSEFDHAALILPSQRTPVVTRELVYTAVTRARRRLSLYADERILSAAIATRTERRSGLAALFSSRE
Chain of Exodeoxyribonuclease V (P07648 whole entry): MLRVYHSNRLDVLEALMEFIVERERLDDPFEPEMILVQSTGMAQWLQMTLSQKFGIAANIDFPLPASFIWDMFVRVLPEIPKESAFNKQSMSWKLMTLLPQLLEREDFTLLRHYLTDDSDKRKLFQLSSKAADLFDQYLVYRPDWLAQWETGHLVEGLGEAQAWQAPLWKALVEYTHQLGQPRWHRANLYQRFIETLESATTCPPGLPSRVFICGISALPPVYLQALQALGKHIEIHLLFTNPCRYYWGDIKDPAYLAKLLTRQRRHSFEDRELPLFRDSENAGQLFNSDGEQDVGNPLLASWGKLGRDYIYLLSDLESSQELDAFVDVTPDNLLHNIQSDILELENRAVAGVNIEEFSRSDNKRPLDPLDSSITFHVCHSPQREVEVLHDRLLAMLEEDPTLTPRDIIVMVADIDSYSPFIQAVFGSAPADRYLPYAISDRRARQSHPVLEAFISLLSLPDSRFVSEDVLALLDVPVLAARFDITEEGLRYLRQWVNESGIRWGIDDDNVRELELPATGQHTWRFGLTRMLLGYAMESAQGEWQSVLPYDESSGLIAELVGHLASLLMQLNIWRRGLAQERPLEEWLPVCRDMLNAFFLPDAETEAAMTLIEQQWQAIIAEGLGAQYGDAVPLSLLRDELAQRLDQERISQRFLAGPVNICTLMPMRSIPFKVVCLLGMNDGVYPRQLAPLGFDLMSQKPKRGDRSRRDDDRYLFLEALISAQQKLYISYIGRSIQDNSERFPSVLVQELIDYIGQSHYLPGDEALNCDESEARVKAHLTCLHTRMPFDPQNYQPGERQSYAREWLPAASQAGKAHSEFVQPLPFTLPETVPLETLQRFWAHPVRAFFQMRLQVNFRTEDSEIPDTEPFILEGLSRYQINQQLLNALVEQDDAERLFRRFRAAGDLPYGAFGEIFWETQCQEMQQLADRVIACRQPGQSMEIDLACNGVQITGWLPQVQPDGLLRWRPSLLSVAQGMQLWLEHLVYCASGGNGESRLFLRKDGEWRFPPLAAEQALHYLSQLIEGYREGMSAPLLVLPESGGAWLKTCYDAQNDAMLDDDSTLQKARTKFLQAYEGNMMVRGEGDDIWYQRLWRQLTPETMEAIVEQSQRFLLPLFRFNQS
Chain of Exodeoxyribonuclease V (P08394 whole entry): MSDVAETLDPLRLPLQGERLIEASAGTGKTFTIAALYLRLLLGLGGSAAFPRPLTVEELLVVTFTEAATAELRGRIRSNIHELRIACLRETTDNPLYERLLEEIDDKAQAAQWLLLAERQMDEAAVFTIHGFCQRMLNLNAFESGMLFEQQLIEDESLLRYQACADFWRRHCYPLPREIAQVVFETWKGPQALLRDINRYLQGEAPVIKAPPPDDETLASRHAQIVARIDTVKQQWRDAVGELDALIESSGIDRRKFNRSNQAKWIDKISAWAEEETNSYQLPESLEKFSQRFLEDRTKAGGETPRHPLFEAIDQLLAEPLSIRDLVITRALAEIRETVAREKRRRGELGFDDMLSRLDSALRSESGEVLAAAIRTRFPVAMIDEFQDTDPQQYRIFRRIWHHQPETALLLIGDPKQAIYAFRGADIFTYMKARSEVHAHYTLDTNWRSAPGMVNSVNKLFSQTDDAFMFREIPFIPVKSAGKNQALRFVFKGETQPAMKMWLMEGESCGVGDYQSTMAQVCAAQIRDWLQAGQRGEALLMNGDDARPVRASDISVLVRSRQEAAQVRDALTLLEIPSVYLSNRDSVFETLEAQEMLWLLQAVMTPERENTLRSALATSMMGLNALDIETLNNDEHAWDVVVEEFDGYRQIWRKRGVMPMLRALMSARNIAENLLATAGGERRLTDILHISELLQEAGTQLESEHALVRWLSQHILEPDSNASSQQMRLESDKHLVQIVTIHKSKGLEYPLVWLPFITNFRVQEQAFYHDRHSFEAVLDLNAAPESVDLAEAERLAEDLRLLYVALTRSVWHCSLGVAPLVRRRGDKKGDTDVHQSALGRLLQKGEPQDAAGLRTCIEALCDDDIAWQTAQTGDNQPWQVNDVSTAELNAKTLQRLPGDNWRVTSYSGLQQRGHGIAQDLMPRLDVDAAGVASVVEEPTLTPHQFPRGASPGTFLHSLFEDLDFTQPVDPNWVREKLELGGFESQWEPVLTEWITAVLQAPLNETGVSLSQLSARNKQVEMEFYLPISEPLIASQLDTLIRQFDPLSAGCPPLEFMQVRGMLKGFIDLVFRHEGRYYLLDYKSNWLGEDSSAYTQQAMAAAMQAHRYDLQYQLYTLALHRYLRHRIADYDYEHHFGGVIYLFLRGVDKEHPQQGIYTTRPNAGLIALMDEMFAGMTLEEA
Chain of Beta-galactosidase (Q8VNN2 whole entry): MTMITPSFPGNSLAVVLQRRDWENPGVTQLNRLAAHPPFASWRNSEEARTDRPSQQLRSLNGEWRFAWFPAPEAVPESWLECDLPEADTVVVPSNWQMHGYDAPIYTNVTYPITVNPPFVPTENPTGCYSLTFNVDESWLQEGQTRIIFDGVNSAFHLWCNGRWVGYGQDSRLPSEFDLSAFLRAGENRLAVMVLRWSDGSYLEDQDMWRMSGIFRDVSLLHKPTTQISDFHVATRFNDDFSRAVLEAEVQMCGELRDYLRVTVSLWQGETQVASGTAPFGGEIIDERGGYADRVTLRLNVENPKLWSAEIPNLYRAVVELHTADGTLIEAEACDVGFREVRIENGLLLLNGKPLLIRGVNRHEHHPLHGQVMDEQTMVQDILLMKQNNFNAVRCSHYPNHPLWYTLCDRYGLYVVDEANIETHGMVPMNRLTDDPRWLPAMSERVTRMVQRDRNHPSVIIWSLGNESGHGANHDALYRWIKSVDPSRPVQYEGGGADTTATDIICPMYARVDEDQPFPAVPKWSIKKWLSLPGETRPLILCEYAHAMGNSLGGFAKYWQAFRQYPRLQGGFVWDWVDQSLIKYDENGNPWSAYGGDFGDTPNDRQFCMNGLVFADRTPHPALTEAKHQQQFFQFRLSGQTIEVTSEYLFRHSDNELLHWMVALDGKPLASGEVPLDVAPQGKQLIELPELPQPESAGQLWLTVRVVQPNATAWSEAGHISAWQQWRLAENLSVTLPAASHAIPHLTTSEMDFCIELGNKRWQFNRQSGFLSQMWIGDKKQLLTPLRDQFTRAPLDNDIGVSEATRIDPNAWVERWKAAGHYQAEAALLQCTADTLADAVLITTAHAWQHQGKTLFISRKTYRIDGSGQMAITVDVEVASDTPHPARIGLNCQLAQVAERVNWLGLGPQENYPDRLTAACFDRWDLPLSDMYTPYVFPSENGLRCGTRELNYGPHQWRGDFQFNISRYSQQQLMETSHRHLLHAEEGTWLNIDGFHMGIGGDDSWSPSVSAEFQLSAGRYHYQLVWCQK

COC(=O)Cn1nc(-c2ccccc2)c2ccccc21
EC50 [1]: 0.81 µM (active) | EC50 [2]: > 180 µM (inactive) | EC50 [3]: > 150 µM (inactive) | AC50 (Candida albicans): 1.15 µM (active) | EC50 [4]: 33.9 µM (active)

Clc1ccc(-c2nnc(CSc3nnc(-c4cccs4)n3Cc3ccccc3)o2)cc1
IC50 (Phospholipase A2): 35.1 µM (inactive) | IC50 (Beta-galactosidase): > 80 µM (inactive) | IC50 (Cysteine protease ATG4B): 37.3 µM (inactive)

COc1ccc(C2=NN(C3=NN=C(N)Cc4ncnn43)C(O)(C(F)(F)F)C2)cc1 (configuration not stated)
EC50 [5]: 13.3 µM (active) | IC50 [6]: 41.2 µM (active) | EC50 [7]: 7.5 µM (active) | EC50 [8]: 14.1 µM (active)

CCOc1cc(/C=C2/C(=O)ON=C2C)cc(Br)c1O
IC50 [6]: 33.1 µM (active) | IC50 [9]: 35.8 µM (active) | IC50 [10]: 38.1 µM (active) | IC50 [11]: 19.3 µM (inactive)

CCCNC(=O)c1ccc2c(O)c(O)c(-c3cccc(Br)c3)nc2c1
EC50 [1]: 2.09 µM (active) | EC50 [12]: 4.83 µM (active) | EC50 [13]: 1.6 µM (active) | EC50 [14]: 2.73 µM (active) | EC50 [15]: 3.4 µM (active) | EC50 [3]: 15.6 µM (active) | EC50 [16]: 3.04 µM (active) | IC50 (Exodeoxyribonuclease V): > 119 µM (inactive) | IC50 [17]: > 119 µM (inactive) | EC50 [18]: > 195 µM (not active) | AC50 (INS1): 5.4 µM (active)
